Measurements: the supplement of paper PMC10307832

These cell lines were tested with CN(C)C(=N)NC(=N)N [Metformin] + CC(C)C[C@H](NC(=O)[C@H](Cc1ccccc1)NC(=O)c1cnccn1)B(O)O [Bortezomib] (partner 0.002 µM) (assay: relative viability (nuclei count vs DMSO), 5 days (fraction); higher = more cells survive). Details: first compound 1000 µM.
How it was run: (§1)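 Dosing by pin tool came one day after lung cancer cell lines were seeded in 1536-well plates, using either one drug or a fixed anchor-drug dose plus five library-drug doses (not always all listed) in √10 steps. After 5 days, nuclei were counted on 4× images. Relative viability is treated-well nuclei count divided by vehicle-well nuclei count, and values are medians of duplicate plates.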

Row | Cell Line | relative viability
1 | NCI-H2228 | 1.13

What follows are cell lines tested with CN(C)C(=N)NC(=N)N [Metformin] + Nc1ncn([C@H]2C[C@H](O)[C@@H](CO)O2)c(=O)n1 [Decitabine] (partner 2 µM) in the same assay as above. Details: first compound 10 µM.
How it was run: as §1

Row | Cell Line | relative viability
2 | A549 | 0.182
3 | A-427 | 0.524
4 | BEN | 0.768
5 | COR-L23 | 0.456
6 | COR-L 105 | 0.588
7 | ChaGo-K-1 | 0.524
8 | EMC-BAC-2 | 0.844
9 | EPLC-272H | 0.383
10 | H3255 | 0.531
11 | HARA | 0.722
12 | HCC-15 | 0.548
13 | HCC-366 | 0.288
14 | HCC-827 | 0.321
15 | HOP-62 | 0.193
16 | LCLC-103H | 0.72
17 | LK-2 | 0.298
18 | LOU-NH91 | 0.787
19 | NCI-H358 | 0.202
20 | NCI-H522 | 0.659
21 | NCI-H1395 | 0.661
22 | NCI-H1793 | 0.503
23 | NCI-H1944 | 0.361
24 | NCI-H2170 | 0.415
25 | SK-MES-1 | 0.336
26 | SW 900 | 0.41

Same assay, conditions: first compound 31.62 µM

Row | Cell Line | relative viability
27 | 201T | 0.824
28 | A549 | 0.291
29 | A-427 | 0.587
30 | ABC-1 | 1.12
31 | BEN | 0.777
32 | COR-L23 | 0.514
33 | COR-L 105 | 0.64
34 | ChaGo-K-1 | 0.535
35 | EKVX | 0.302
36 | EMC-BAC-2 | 1.02
37 | EPLC-272H | 0.415
38 | H3255 | 0.665
39 | HARA | 0.498
40 | HCC-15 | 0.636
41 | HCC-44 | 0.934
42 | HCC-78 | 0.605
43 | HCC-366 | 0.293

Row | Cell Line | relative viability
44 | HCC-827 | 0.315
45 | HOP-62 | 0.144
46 | LC-2-ad | 0.736
47 | LCLC-97TM1 | 0.203
48 | LCLC-103H | 0.738
49 | LK-2 | 0.398
50 | LOU-NH91 | 0.799
51 | NCI-H358 | 0.225
52 | NCI-H522 | 0.599
53 | NCI-H1395 | 0.758
54 | NCI-H1648 | 0.512
55 | NCI-H1793 | 0.439
56 | NCI-H1944 | 0.381
57 | NCI-H2170 | 0.436
58 | NCI-H2342 | 0.812
59 | SK-MES-1 | 0.291
60 | SW 900 | 0.389

Same assay, conditions: first compound 100 µM

Row | Cell Line | relative viability
61 | 201T | 0.805
62 | A549 | 0.179
63 | A-427 | 0.571
64 | ABC-1 | 1.2
65 | BEN | 0.646
66 | COR-L23 | 0.365
67 | COR-L 105 | 0.695
68 | ChaGo-K-1 | 0.512
69 | EKVX | 0.369
70 | EPLC-272H | 0.426
71 | H3255 | 0.596
72 | HARA | 0.581
73 | HCC-15 | 0.703
74 | HCC-44 | 0.927
75 | HCC-78 | 0.768
76 | HCC-366 | 0.306

Row | Cell Line | relative viability
77 | HCC-827 | 0.312
78 | HOP-62 | 0.18
79 | LC-2-ad | 0.826
80 | LCLC-97TM1 | 0.202
81 | LCLC-103H | 0.714
82 | LK-2 | 0.33
83 | LOU-NH91 | 0.848
84 | NCI-H358 | 0.214
85 | NCI-H522 | 0.679
86 | NCI-H1395 | 0.719
87 | NCI-H1648 | 0.555
88 | NCI-H1793 | 0.458
89 | NCI-H1944 | 0.437
90 | NCI-H2170 | 0.417
91 | NCI-H2342 | 0.708
92 | SK-MES-1 | 0.342

Same assay, conditions: first compound 316.23 µM

Row | Cell Line | relative viability
93 | 201T | 0.799
94 | A549 | 0.198
95 | A-427 | 0.521
96 | ABC-1 | 1.54
97 | BEN | 0.661
98 | COR-L23 | 0.388
99 | COR-L 105 | 0.719
100 | ChaGo-K-1 | 0.481
101 | EKVX | 0.325
102 | EMC-BAC-2 | 0.855
103 | EPLC-272H | 0.38
104 | H3255 | 0.61
105 | HARA | 0.621
106 | HCC-15 | 0.662
107 | HCC-44 | 0.959
108 | HCC-78 | 0.779
109 | HCC-366 | 0.291

Row | Cell Line | relative viability
110 | HCC-827 | 0.322
111 | HOP-62 | 0.208
112 | LC-2-ad | 0.583
113 | LCLC-97TM1 | 0.21
114 | LCLC-103H | 0.714
115 | LK-2 | 0.294
116 | LOU-NH91 | 0.797
117 | NCI-H358 | 0.253
118 | NCI-H522 | 0.648
119 | NCI-H1395 | 0.713
120 | NCI-H1648 | 0.535
121 | NCI-H1793 | 0.449
122 | NCI-H1944 | 0.401
123 | NCI-H2170 | 0.395
124 | NCI-H2342 | 0.714
125 | SK-MES-1 | 0.34
126 | SW 900 | 0.412

Same assay, conditions: first compound 1000 µM

Row | Cell Line | relative viability
127 | 201T | 0.776
128 | A549 | 0.209
129 | A-427 | 0.574
130 | ABC-1 | 0.548
131 | BEN | 0.752
132 | COR-L23 | 0.435
133 | COR-L 105 | 0.697
134 | ChaGo-K-1 | 0.509
135 | EKVX | 0.322
136 | EMC-BAC-2 | 0.861
137 | EPLC-272H | 0.507
138 | H3255 | 0.624
139 | HARA | 0.68
140 | HCC-15 | 0.703
141 | HCC-44 | 0.966
142 | HCC-78 | 0.658
143 | HCC-366 | 0.289

Row | Cell Line | relative viability
144 | HCC-827 | 0.364
145 | HOP-62 | 0.186
146 | LC-2-ad | 0.642
147 | LCLC-97TM1 | 0.29
148 | LCLC-103H | 0.788
149 | LK-2 | 0.444
150 | LOU-NH91 | 0.79
151 | NCI-H358 | 0.213
152 | NCI-H522 | 0.7
153 | NCI-H1395 | 0.382
154 | NCI-H1648 | 0.656
155 | NCI-H1793 | 0.621
156 | NCI-H1944 | 0.453
157 | NCI-H2170 | 0.471
158 | NCI-H2342 | 0.693
159 | SK-MES-1 | 0.361
160 | SW 900 | 0.492
